Results reported in the supplement of paper PMC10307832.

What was measured:
Assay in all cases: relative viability (nuclei count vs DMSO), 5 days (fraction); higher = more cells survive
NCI-H1623 = tested on: NCI-H1623
Outline: (§1)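 Cells from lung cancer lines were seeded into 1536-well plates and, one day later, dosed by pin tool. Treatments were either a single drug or a fixed dose of an anchor drug with five library-drug doses (not always all listed) in √10 steps. After 5 days, nuclei were stained in a one-step fixation (final 0.05% Triton X-100, 1% formaldehyde, 1 ug/ml Hoechst) and counted on 4× images, and relative viability is the treated-to-vehicle nuclei ratio, as the median of duplicate plates.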

NCI-H1355 = tested on: NCI-H1355
Outline: as §1

LCLC-97TM1 = tested on: LCLC-97TM1
Outline: as §1

NCI-H596 = tested on: NCI-H596
Outline: as §1

NCI-H2342 = tested on: NCI-H2342
Outline: as §1

NCI-H1437 = tested on: NCI-H1437
Outline: as §1

EBC-1 = tested on: EBC-1
Outline: as §1

IA-LM = tested on: IA-LM
Outline: as §1

Calu-6 = tested on: Calu-6
Outline: as §1

A549 = tested on: A549
Outline: as §1

NCI-H1703 = tested on: NCI-H1703
Outline: as §1

NCI-H1299 = tested on: NCI-H1299
Outline: as §1

NCI-H1648 = tested on: NCI-H1648
Outline: as §1

Work on `CCNC(=O)c1noc(-c2cc(C(C)C)c(O)cc2O)c1-c1ccc(CN2CCOCC2)cc1` [Luminespib] + Cc1nc(Nc2ncc(C(=O)Nc3c(C)cccc3Cl)s2)cc(N2CCN(CCO)CC2)n1 [Dasatinib] (partner 0.075 µM) yielded a relative viability (NCI-H1623; first compound 0.002 µM) of 0.525, a relative viability (NCI-H1623; first compound 0.006325 µM) of 0.384 and a relative viability (NCI-H1623; first compound 0.02 µM) of 0.416. For the same molecule, the relative viability (NCI-H1623; first compound 0.06325 µM) was 0.506, the relative viability (NCI-H1623; first compound 0.2 µM) was 0.406 and the relative viability (NCI-H1355; first compound 0.002 µM) was 0.678. For the same molecule, the relative viability (NCI-H1355; first compound 0.006325 µM) was 0.656, the relative viability (NCI-H1355; first compound 0.02 µM) was 0.473 and the relative viability (NCI-H1355; first compound 0.06325 µM) was 0.414. The relative viability (NCI-H1355; first compound 0.2 µM) was 0.153, the relative viability (LCLC-97TM1; first compound 0.002 µM) was 0.884 and the relative viability (LCLC-97TM1; first compound 0.006325 µM) was 0.721. For the same molecule, the relative viability (LCLC-97TM1; first compound 0.02 µM) was 0.986, the relative viability (LCLC-97TM1; first compound 0.06325 µM) was 0.726 and the relative viability (LCLC-97TM1; first compound 0.2 µM) was 0.106. For the same molecule, the relative viability (NCI-H596; first compound 0.002 µM) was 0.529, the relative viability (NCI-H596; first compound 0.006325 µM) was 0.614 and the relative viability (NCI-H596; first compound 0.02 µM) was 0.426. For the same molecule, the relative viability (NCI-H596; first compound 0.06325 µM) was 0.479, the relative viability (NCI-H596; first compound 0.2 µM) was 0.511 and the relative viability (NCI-H2342; first compound 0.002 µM) was 0.351. For the same molecule, the relative viability (NCI-H2342; first compound 0.006325 µM) was 0.33, the relative viability (NCI-H2342; first compound 0.02 µM) was 0.287 and the relative viability (NCI-H2342; first compound 0.06325 µM) was 0.259. The relative viability (NCI-H2342; first compound 0.2 µM) was 0.311, the relative viability (NCI-H1437; first compound 0.002 µM) was 0.421 and the relative viability (NCI-H1437; first compound 0.006325 µM) was 0.316. It also gave a relative viability (NCI-H1437; first compound 0.02 µM) of 0.255, a relative viability (NCI-H1437; first compound 0.06325 µM) of 0.252 and a relative viability (NCI-H1437; first compound 0.2 µM) of 0.126.

`Cc1cn(-c2cc(NC(=O)c3ccc(C)c(Nc4nccc(-c5cccnc5)n4)c3)cc(C(F)(F)F)c2)cn1` [Nilotinib] + O=C(c1cc(Cc2n[nH]c(=O)c3ccccc23)ccc1F)N1CCN(C(=O)C2CC2)CC1 [Olaparib] (partner 8 µM) gave a relative viability (EBC-1; first compound 0.001 µM) of 0.67, a relative viability (EBC-1; first compound 0.003162 µM) of 0.804 and a relative viability (EBC-1; first compound 0.01 µM) of 0.755. It also gave a relative viability (EBC-1; first compound 0.03162 µM) of 0.661, a relative viability (EBC-1; first compound 0.1 µM) of 0.631 and a relative viability (IA-LM; first compound 0.001 µM) of 0.659. It also gave a relative viability (IA-LM; first compound 0.003162 µM) of 0.864, a relative viability (IA-LM; first compound 0.01 µM) of 0.758 and a relative viability (IA-LM; first compound 0.03162 µM) of 0.664. The relative viability (IA-LM; first compound 0.1 µM) was 0.777, the relative viability (Calu-6; first compound 0.001 µM) was 0.525 and the relative viability (Calu-6; first compound 0.003162 µM) was 0.693. The relative viability (Calu-6; first compound 0.01 µM) was 0.583, the relative viability (Calu-6; first compound 0.03162 µM) was 0.409 and the relative viability (Calu-6; first compound 0.1 µM) was 0.494. The relative viability (NCI-H1355; first compound 0.001 µM) was 0.748, the relative viability (NCI-H1355; first compound 0.003162 µM) was 0.816 and the relative viability (NCI-H1355; first compound 0.01 µM) was 0.737. It also gave a relative viability (NCI-H1355; first compound 0.03162 µM) of 0.785, a relative viability (NCI-H1355; first compound 0.1 µM) of 0.763 and a relative viability (A549; first compound 0.001 µM) of 0.249. The relative viability (A549; first compound 0.003162 µM) was 0.377, the relative viability (A549; first compound 0.01 µM) was 0.334 and the relative viability (A549; first compound 0.03162 µM) was 0.241. It also gave a relative viability (A549; first compound 0.1 µM) of 0.117, a relative viability (LCLC-97TM1; first compound 0.001 µM) of 0.339 and a relative viability (LCLC-97TM1; first compound 0.003162 µM) of 0.467. For the same molecule, the relative viability (LCLC-97TM1; first compound 0.01 µM) was 0.461, the relative viability (LCLC-97TM1; first compound 0.03162 µM) was 0.446 and the relative viability (LCLC-97TM1; first compound 0.1 µM) was 0.343. For the same molecule, the relative viability (NCI-H1703; first compound 0.001 µM) was 0.302, the relative viability (NCI-H1703; first compound 0.003162 µM) was 0.201 and the relative viability (NCI-H1703; first compound 0.01 µM) was 0.234. The relative viability (NCI-H1703; first compound 0.03162 µM) was 0.174, the relative viability (NCI-H1703; first compound 0.1 µM) was 0.212 and the relative viability (NCI-H596; first compound 0.001 µM) was 0.651. For the same molecule, the relative viability (NCI-H596; first compound 0.003162 µM) was 0.702, the relative viability (NCI-H596; first compound 0.01 µM) was 0.711 and the relative viability (NCI-H596; first compound 0.03162 µM) was 0.646. The relative viability (NCI-H596; first compound 0.1 µM) was 0.671, the relative viability (NCI-H1299; first compound 0.001 µM) was 0.886 and the relative viability (NCI-H1299; first compound 0.003162 µM) was 1.01. It also gave a relative viability (NCI-H1299; first compound 0.01 µM) of 0.985, a relative viability (NCI-H1299; first compound 0.03162 µM) of 0.948 and a relative viability (NCI-H1299; first compound 0.1 µM) of 0.664. It also gave a relative viability (NCI-H1648; first compound 0.001 µM) of 0.577, a relative viability (NCI-H1648; first compound 0.003162 µM) of 0.909 and a relative viability (NCI-H1648; first compound 0.01 µM) of 0.903. The relative viability (NCI-H1648; first compound 0.03162 µM) was 0.621, the relative viability (NCI-H1648; first compound 0.1 µM) was 0.893 and the relative viability (NCI-H2342; first compound 0.001 µM) was 0.399. The relative viability (NCI-H2342; first compound 0.003162 µM) was 0.457, the relative viability (NCI-H2342; first compound 0.01 µM) was 0.464 and the relative viability (NCI-H2342; first compound 0.03162 µM) was 0.338. It also gave a relative viability (NCI-H2342; first compound 0.1 µM) of 0.418, a relative viability (NCI-H1437; first compound 0.001 µM) of 0.603 and a relative viability (NCI-H1437; first compound 0.003162 µM) of 0.687. It also gave a relative viability (NCI-H1437; first compound 0.01 µM) of 0.654, a relative viability (NCI-H1437; first compound 0.03162 µM) of 0.548 and a relative viability (NCI-H1437; first compound 0.1 µM) of 0.559.
